# Experiments:
# [1] = biological target: Serine/threonine-protein kinase RIO2 (Homo sapiens) (UniProt Q9BVS4); test: Selectivity interaction (KinomeScan (DiscoverX)) EUB0000092b RIOK2; details: at 10 µM
# [2] = biological target: Ribosomal protein S6 kinase alpha-4 (Homo sapiens) (UniProt O75676); test: Selectivity interaction (KinomeScan (DiscoverX)) EUB0000092b RPS6KA4; details: at 10 µM
# [3] = biological target: STE20-like serine/threonine-protein kinase (Homo sapiens, UniProt Q9H2G2); test: Selectivity interaction (ProQinase) EUB0000171b SLK
# Sequence of STE20-like serine/threonine-protein kinase (Q9H2G2 whole entry, looked up): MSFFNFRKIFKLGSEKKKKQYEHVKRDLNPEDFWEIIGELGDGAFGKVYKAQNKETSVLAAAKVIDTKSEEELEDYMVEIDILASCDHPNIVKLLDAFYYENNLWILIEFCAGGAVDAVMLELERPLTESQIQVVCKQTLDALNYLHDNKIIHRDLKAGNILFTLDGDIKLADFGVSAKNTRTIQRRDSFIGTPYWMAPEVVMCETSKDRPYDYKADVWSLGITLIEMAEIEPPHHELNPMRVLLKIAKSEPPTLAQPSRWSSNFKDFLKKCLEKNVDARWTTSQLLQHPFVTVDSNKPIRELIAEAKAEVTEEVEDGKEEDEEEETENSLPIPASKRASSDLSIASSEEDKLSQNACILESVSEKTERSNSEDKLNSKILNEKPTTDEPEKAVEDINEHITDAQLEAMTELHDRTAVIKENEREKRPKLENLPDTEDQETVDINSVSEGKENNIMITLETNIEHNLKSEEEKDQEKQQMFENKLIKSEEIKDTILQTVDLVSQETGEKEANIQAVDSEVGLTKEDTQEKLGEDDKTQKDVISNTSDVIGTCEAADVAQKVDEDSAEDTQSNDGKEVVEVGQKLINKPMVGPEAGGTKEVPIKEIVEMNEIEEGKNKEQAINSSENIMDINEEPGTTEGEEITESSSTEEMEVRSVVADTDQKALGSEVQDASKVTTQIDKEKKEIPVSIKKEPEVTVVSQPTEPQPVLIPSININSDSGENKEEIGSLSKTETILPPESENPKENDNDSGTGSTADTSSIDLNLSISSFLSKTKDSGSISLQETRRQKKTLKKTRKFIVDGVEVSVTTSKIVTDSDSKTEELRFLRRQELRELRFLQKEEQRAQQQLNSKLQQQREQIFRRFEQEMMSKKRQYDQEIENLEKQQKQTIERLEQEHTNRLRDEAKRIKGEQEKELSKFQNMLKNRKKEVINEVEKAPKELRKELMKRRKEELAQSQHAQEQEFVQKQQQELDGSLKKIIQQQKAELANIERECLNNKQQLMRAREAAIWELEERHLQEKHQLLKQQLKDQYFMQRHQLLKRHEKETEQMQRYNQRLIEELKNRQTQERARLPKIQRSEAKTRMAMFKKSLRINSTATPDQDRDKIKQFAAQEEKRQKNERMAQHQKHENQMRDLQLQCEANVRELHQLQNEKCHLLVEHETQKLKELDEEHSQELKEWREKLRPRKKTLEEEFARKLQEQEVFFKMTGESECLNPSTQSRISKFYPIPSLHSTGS
# [4] = biological target: Microtubule-associated serine/threonine-protein kinase 1 (Homo sapiens) (UniProt Q9Y2H9); test: Selectivity interaction (KinomeScan (DiscoverX)) EUB0000666a MAST1; details: at 10 µM
# Sequence of Microtubule-associated serine/threonine-protein kinase 1 (Homo sapiens) (Q9Y2H9 whole entry, looked up): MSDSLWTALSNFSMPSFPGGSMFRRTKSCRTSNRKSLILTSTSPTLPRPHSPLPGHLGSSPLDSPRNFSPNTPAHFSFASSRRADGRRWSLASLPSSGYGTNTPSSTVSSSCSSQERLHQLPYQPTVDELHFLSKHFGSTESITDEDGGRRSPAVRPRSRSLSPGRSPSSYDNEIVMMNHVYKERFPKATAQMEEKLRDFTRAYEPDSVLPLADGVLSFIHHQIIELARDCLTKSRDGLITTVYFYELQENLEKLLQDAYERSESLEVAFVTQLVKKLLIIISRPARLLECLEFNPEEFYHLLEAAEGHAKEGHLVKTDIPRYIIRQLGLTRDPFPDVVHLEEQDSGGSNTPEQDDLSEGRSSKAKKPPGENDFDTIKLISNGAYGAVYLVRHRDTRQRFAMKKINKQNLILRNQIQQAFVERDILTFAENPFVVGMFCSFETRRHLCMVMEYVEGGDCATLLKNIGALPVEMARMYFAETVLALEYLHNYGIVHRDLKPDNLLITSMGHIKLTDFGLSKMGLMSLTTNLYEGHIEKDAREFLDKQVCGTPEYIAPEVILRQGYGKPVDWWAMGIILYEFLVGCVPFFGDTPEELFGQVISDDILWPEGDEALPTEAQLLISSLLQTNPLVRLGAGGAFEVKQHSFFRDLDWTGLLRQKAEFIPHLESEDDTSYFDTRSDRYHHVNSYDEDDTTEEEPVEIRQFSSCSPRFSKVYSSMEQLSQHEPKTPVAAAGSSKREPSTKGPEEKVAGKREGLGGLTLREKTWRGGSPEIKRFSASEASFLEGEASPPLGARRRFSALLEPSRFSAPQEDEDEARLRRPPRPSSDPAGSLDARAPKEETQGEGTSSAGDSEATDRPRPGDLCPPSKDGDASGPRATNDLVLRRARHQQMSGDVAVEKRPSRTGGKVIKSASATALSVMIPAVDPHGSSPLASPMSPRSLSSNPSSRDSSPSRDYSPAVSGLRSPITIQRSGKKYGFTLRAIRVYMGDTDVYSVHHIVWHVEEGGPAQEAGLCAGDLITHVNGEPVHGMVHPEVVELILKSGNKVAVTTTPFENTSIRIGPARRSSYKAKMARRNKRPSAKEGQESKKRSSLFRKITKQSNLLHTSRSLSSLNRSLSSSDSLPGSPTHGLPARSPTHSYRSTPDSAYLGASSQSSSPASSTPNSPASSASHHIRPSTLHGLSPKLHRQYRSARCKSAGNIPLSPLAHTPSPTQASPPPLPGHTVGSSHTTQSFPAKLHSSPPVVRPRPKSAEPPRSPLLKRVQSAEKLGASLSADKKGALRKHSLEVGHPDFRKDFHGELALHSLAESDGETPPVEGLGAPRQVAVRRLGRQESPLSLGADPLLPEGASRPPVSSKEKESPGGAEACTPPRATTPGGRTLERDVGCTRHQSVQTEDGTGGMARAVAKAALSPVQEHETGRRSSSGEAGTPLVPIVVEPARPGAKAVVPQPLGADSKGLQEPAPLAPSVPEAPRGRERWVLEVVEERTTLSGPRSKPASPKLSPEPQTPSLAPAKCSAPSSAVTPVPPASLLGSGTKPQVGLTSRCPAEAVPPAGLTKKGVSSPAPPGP
# [5] = biological target: T1, Tyrosine-protein kinase ITK/TSK (Homo sapiens) (UniProt Q08881); details: at 10 µM
# T1 sequence (whole entry): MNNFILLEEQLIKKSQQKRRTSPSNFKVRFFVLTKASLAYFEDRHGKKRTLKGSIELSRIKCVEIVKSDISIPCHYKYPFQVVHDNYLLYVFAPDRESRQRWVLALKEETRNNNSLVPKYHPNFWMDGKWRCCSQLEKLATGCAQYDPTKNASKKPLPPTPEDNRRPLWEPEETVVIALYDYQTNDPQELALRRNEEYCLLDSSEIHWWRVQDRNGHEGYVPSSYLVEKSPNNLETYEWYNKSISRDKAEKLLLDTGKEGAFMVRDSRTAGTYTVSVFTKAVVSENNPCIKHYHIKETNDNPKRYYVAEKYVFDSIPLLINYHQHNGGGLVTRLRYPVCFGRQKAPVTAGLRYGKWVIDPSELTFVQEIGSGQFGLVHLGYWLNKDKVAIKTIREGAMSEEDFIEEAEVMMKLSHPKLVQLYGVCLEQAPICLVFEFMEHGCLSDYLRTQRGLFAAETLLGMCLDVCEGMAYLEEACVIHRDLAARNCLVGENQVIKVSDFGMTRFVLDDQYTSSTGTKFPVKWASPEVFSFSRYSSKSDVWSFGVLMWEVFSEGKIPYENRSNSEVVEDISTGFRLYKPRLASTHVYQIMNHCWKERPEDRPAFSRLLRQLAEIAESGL
# [6] = biological target: T2, Serine/threonine-protein kinase Nek9 (Homo sapiens) (UniProt Q8TD19); test: Selectivity interaction (ActivX KiNativ screen (kinase selectivity in THP-1 cell lysates)) EUB0000639a NEK9; format: subcellular; details: lysate, at 1 µM
# T2 sequence (whole entry): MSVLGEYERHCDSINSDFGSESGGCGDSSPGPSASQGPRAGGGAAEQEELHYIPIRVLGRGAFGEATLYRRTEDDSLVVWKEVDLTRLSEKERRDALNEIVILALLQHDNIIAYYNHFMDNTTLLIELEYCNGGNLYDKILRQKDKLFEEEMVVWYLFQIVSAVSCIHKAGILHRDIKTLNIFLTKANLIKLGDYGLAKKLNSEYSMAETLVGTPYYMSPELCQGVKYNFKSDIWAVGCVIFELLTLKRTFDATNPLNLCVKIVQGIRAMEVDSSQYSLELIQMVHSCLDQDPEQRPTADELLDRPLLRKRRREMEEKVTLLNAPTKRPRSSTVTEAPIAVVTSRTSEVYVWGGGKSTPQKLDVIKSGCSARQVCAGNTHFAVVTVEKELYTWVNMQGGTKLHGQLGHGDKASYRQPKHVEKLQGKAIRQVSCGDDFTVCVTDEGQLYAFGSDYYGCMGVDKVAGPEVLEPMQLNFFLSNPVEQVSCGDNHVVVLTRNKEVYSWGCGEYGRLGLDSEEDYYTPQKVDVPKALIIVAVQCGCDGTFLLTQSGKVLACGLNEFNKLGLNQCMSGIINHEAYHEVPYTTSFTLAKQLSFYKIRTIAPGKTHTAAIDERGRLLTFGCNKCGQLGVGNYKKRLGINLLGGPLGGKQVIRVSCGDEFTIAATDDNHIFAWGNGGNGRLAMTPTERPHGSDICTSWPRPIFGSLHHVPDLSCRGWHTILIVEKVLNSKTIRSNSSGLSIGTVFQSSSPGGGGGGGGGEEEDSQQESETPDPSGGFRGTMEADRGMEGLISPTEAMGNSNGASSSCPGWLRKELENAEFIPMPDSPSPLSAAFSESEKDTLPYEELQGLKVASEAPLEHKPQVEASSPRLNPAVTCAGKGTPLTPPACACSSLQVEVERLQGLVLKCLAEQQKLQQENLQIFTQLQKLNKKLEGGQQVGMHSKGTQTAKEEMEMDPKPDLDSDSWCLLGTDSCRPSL
# [7] = biological target: Tyrosine-protein kinase HCK (Homo sapiens) (UniProt P08631); test: Selectivity interaction (ActivX KiNativ screen (kinase selectivity in THP-1 cell lysates)) EUB0000639a HCK; format: subcellular; details: lysate, at 0.04 µM
# Sequence of Tyrosine-protein kinase HCK (Homo sapiens) (P08631 2-526 limits assumed): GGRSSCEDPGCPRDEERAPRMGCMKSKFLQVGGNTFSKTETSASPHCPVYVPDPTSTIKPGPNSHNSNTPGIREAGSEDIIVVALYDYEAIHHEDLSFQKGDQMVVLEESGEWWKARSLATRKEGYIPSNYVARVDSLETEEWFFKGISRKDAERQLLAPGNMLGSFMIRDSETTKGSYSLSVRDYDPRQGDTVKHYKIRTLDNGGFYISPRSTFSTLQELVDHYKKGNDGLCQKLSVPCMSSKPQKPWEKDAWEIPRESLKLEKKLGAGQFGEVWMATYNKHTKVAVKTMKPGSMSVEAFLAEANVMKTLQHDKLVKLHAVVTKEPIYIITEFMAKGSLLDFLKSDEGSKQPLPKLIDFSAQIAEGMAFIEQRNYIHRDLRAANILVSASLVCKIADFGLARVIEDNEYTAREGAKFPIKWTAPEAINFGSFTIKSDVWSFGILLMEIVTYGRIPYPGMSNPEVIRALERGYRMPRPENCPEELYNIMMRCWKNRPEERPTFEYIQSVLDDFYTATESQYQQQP
# [8] = biological target: Serine/threonine-protein kinase 16 (Homo sapiens, UniProt O75716); test: Selectivity interaction (ActivX KiNativ screen (kinase selectivity in THP-1 cell lysates)) EUB0000639a STK16; format: subcellular; details: lysate, at 0.2 µM
# Sequence of Serine/threonine-protein kinase 16 (O75716 whole entry): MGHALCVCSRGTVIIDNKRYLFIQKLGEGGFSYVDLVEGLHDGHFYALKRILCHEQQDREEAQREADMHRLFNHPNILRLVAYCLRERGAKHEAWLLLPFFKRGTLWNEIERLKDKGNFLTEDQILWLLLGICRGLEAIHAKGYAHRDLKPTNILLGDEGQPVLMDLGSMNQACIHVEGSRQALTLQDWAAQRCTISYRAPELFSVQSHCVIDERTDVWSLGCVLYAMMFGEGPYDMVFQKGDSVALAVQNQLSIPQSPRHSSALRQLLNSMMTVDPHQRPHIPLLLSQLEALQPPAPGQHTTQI
# [9] = biological target: T3, Serine/threonine-protein kinase D3 (Homo sapiens) (UniProt O94806); test: Selectivity interaction (Kinase screening (Nanosyn)) EUB0000604a PRKD3
# T3 sequence (whole entry): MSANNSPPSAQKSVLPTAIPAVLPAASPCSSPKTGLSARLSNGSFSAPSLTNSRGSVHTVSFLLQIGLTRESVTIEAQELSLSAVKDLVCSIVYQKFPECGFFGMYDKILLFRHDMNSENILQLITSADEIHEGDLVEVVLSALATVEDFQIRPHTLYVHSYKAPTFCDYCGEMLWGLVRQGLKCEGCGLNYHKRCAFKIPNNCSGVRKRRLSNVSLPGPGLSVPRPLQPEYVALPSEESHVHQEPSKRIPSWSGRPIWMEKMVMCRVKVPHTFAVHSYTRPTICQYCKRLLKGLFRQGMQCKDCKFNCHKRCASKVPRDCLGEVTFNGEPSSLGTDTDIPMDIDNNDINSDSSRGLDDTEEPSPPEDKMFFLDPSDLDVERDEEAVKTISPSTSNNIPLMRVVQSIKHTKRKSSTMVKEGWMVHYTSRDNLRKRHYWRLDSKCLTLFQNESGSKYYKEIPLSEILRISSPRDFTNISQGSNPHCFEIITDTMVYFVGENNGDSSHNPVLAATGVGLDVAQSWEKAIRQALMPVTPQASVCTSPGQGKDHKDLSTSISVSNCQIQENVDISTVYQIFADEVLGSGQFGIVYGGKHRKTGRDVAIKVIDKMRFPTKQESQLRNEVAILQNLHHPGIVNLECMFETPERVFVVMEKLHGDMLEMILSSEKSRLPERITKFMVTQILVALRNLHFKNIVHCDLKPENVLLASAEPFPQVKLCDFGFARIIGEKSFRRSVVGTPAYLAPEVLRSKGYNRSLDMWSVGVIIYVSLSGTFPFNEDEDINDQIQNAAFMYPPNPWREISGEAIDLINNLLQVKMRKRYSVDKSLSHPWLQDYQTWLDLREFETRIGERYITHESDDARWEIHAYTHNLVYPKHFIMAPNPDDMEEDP
# Sequence of Ribosomal protein S6 kinase alpha-4 (Homo sapiens) (O75676 whole entry, looked up): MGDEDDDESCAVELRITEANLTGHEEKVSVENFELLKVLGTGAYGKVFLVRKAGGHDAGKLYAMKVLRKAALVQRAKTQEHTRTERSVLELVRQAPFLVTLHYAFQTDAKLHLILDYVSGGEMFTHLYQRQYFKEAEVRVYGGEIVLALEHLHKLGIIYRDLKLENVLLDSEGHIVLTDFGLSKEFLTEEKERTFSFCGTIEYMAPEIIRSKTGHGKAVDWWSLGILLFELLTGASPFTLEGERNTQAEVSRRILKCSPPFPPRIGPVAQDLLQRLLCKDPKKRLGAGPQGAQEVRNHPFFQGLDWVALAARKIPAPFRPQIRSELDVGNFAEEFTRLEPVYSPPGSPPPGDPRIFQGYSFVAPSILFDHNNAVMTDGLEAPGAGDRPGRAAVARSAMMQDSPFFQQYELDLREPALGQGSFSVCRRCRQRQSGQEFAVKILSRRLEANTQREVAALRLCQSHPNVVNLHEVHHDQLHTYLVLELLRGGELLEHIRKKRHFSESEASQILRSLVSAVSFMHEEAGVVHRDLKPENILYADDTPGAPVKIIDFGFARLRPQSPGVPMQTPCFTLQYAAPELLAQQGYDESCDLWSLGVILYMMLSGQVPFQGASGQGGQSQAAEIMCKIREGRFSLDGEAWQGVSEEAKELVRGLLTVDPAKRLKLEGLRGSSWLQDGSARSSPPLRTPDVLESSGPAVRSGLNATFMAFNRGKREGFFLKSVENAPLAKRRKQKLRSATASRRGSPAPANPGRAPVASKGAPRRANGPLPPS
# Sequence of Serine/threonine-protein kinase RIO2 (Homo sapiens) (Q9BVS4 whole entry, looked up): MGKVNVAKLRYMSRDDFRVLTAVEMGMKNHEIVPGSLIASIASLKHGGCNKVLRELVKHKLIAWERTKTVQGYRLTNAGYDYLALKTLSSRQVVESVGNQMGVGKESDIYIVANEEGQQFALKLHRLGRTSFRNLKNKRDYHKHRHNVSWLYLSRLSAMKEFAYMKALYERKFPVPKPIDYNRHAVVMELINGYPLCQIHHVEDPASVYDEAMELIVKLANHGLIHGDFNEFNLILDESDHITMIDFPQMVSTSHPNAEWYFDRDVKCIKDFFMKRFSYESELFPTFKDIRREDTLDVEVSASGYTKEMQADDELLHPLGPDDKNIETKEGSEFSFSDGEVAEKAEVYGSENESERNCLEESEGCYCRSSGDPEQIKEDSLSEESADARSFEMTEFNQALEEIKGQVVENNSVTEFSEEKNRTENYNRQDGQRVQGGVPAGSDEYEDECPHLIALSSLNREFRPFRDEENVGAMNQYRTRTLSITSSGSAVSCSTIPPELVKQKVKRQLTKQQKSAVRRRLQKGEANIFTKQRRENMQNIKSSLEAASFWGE
compound,measurement,setting,value
CCC(=O)N1CCN(c2ccc(-n3c(=O)ccc4cnc5ccc(-c6cnc7ccccc7c6)cc5c43)cc2C(F)(F)F)CC1,% of control,[1],24%
same,% of control,[2],100%
C=CC(=O)Nc1cccc(C(=O)Nc2ccc(Nc3cc(-c4[nH]c(SC)nc4C)ccn3)cc2)c1,% of control,[3]; at 1 µM,102%
same,% of control,[3]; at 5 µM,76%
O=C(NOC[C@H](O)CO)c1ccc(F)c(F)c1Nc1ccc(I)cc1F,% of control,[4],100%
Cc1cc([C@@H](C)Nc2ccccc2C(=O)O)c2nc(N3CCOCC3)cc(=O)n2c1 [AZD-6482],% of control,[5],98%
CC[C@@H]1[C@H](F)C(=O)N[C@@H]1COc1nccc2cc(C(N)=O)c(OC)cc12 [ZIMLOVISERTIB],% of inhibition,[6],-1.1%
same,% of inhibition,[7],-8.7%
same,% of inhibition,[8],35.1%
Cc1cnc(Nc2ccc(F)cc2Cl)nc1-c1c[nH]c(C(=O)N[C@H](CO)c2cccc(Cl)c2)c1,% of inhibition,[9],21%

# — ChEMBL document CHEMBL5465560, “Selectivity Literature for EUbOPEN Chemogenomic Library” (2024)
